# Reference: ChEMBL document CHEMBL5506004, “Optimizing drug-like properties of selective butyrylcholinesterase inhibitors for cognitive improvement: Enhancing aqueous solubility by disrupting molecular plane” (Eur J Med Chem, 2024)
# Calls of active or inactive are those of the source. The rule behind the calls is not given here.
# Tests used:
# [1] = Solubility of compound in FaSSIF incubated for 24 hrs by HPLC analysis; assay type: ADME
# Mus musculus [2] = test: Cognitive enhancing effect in Amyloid beta (1 to 42)-treated ICR mouse assessed as spontaneous decision behaviour at 10 mg/kg, po administered daily measured after 13 days by Y-maze test; assay type: functional, organism-based; conditions: time 13.0 day
# Cytochrome P450 1A2 = target: T1, Cytochrome P450 1A2 (Homo sapiens, UniProt P05177); test: Inhibition of CYP1A2 in human liver microsomes at 10 uM in presence of NADPH-regenerating system by LC-MS/MS analysis; assay type: ADME, Microsome
# T1 sequence (P05177 whole entry): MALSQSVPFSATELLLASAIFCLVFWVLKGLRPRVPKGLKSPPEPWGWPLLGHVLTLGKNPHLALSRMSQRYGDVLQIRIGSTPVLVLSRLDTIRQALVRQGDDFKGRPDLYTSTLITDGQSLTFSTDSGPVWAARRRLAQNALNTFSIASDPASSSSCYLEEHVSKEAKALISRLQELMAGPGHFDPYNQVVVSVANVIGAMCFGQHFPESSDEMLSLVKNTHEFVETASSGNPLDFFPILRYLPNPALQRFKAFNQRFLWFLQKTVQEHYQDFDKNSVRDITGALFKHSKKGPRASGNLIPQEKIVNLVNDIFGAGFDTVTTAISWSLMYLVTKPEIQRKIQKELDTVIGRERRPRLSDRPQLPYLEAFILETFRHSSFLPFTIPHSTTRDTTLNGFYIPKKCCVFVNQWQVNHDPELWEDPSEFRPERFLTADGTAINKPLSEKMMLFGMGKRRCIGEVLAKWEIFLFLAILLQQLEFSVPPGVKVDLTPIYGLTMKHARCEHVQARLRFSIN
# [3] = AUC (0 to t) in brain of ICR mouse at 10 mg/kg, po measured for 10 to 480 mins by spectroscopy; assay type: ADME, organism-based; conditions: time 10-480 min
# BV-2 = test: Cytotoxicity against mouse BV-2 cells assessed as survival rate at 100 uM incubated for 24 hrs by MTT assay relative to control; assay type: functional; conditions: read-out: Survival
# HT-22 [4] = test: Neuroprotective activity against glutamate-induced excitotoxicity in mouse HT-22 cells assessed as cell viability at 1 to 10 uM pretreated for 1 hr followed by glutamate addition measured after 24 hrs by MTT assay; assay type: functional, cell-based; conditions: dose 1-10 µM, time 25.0 hrs
# [5] = Metabolic stability in human liver microsomes assessed as compound metabolism at 2 uM measured for 60 mins by LC-MS/MS analysis; assay type: ADME, Microsome; conditions: read-out: Drug metabolism
# CYP2C9 = CYP2C9 (Homo sapiens, UniProt P11712); test: Inhibition of CYP2C9 in human liver microsomes at 10 uM in presence of NADPH-regenerating system by LC-MS/MS analysis relative to control; assay type: ADME, Microsome
# Chain of CYP2C9 (P11712 whole entry): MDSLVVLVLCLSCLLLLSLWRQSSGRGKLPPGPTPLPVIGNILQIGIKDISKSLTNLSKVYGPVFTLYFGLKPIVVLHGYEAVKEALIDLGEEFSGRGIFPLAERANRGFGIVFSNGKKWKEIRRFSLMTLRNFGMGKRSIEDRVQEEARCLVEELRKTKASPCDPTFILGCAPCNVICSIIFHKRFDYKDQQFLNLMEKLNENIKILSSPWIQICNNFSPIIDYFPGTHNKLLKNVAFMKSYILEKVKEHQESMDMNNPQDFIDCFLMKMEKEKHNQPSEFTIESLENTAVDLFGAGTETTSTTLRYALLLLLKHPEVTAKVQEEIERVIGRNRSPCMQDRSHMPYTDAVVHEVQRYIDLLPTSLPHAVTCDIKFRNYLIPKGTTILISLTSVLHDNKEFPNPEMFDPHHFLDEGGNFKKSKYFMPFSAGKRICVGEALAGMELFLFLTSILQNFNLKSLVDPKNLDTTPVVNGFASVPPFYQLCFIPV
# [6] = Acute toxicity in ICR mouse assessed as animal death at 1 g/kg, IG; conditions: in vivo, po, 1000 mg/kg
# [7] = AUC (0 to t) in Sprague-Dawley rat at 10 mg/kg, po measured for 1 to 1440 mins by LC-MS/MS analysis; assay type: ADME, organism-based; conditions: in vivo, time 1-1440 min
# [8] = AUC (0 to infinity) in Sprague-Dawley rat at 10 mg/kg, iv measured for 1 to 1440 mins by LC-MS/MS analysis; assay type: ADME, organism-based; conditions: in vivo, time 1-1440 min
# [9] = Half life in Sprague-Dawley rat at 10 mg/kg, iv measured for 1 to 1440 mins by LC-MS/MS analysis; assay type: ADME, organism-based; conditions: in vivo, time 1-1440 min
# SH-SY5Y [10] = test: Neuroprotective activity against amyloid beta (1 to 42)-induced neuronal death in human SH-SY5Y cells assessed as cell viability pretreated for 1 hr followed by amyloid beta (1 to 42) addition measured after 24 hrs by MTT assay; assay type: functional, cell-based; conditions: dose 1-10 µM, time 25.0 hrs
# [11] = Cmax in Sprague-Dawley rat at 10 mg/kg, po measured for 1 to 1440 mins by LC-MS/MS analysis; assay type: ADME, organism-based; conditions: Sprague-Dawley, in vivo, time 1-1440 min, read-out: Cmax
# Cholinesterase = Cholinesterase (Homo sapiens, UniProt P06276); test: Inhibition of human BChE using BTC iodide as substrate preincubated for 5 mins followed by substrate addition measured after 2 mins by Ellman's method
# Chain of Cholinesterase (P06276 whole entry): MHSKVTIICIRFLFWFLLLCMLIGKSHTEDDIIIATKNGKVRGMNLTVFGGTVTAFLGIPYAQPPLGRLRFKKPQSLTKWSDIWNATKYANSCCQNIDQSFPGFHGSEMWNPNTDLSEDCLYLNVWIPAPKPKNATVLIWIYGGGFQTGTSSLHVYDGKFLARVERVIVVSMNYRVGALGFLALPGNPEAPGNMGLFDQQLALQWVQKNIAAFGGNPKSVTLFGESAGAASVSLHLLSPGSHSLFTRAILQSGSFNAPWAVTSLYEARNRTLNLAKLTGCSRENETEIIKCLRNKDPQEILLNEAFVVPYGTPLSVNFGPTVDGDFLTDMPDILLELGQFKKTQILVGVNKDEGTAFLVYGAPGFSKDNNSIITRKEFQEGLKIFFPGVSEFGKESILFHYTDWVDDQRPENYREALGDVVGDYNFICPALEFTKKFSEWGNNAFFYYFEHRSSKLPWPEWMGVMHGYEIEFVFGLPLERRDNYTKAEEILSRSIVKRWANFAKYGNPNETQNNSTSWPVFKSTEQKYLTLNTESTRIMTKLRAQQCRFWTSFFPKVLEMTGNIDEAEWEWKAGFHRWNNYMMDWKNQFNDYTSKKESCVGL
# [12] = Toxicity in Amyloid beta (1 to 42)-treated ICR mouse assessed as drug tolerance at 10 mg/kg, po administered daily for 12 days; assay type: organism-based; conditions: in vivo, 288 h, time 12 day
# [13] = Ratio of Cmax in brain to plasma in ICR mouse at 10 mg/kg, po measured for 10 to 480 mins by spectroscopy; assay type: ADME, organism-based; conditions: time 10-480 min
# Mus musculus [14] = test: Cognitive enhancing effect in Amyloid beta (1 to 42)-treated ICR mouse assessed as shorter arrival time at 10 mg/kg, po administered daily measured after 7 to 12 days by Morris water maze test; assay type: functional, organism-based; conditions: time 7-12 day
# [15] = Acute toxicity in ICR mouse assessed as animal growth at 1 g/kg, IG; conditions: in vivo, po, 1000 mg/kg
# [16] = Cmax in plasma of ICR mouse at 10 mg/kg, po measured for 10 to 480 mins by spectroscopy; assay type: ADME, organism-based; conditions: time 10-480 min
# Mus musculus [17] = test: Cognitive enhancing effect in Amyloid beta (1 to 42)-treated ICR mouse assessed as reduction in trajectory uncertainty at 10 mg/kg, po administered daily measured after 7 to 12 days by Morris water maze test; assay type: functional, organism-based; conditions: time 7-12 day
# CYP2C19 = CYP2C19 (Homo sapiens, UniProt P33261); test: Inhibition of CYP2C19 in human liver microsomes at 10 uM in presence of NADPH-regenerating system by LC-MS/MS analysis relative to control; assay type: ADME, Microsome
# Chain of CYP2C19 (P33261 whole entry): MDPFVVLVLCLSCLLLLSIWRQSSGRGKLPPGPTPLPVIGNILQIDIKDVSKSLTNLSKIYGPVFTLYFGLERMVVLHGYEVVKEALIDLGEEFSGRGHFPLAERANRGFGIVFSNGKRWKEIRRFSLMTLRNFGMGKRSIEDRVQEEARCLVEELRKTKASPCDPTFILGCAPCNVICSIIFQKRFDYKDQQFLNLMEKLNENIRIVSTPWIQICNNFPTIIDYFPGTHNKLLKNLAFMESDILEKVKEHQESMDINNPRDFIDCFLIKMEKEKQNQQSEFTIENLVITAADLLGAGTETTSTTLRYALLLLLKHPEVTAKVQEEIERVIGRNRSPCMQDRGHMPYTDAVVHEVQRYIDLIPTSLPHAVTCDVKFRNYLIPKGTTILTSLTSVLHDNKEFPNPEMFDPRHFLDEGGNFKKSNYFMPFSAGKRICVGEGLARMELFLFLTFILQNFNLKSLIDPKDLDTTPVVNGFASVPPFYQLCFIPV
# [18] = AUC (0 to t) in plasma of ICR mouse at 10 mg/kg, po measured for 10 to 480 mins by spectroscopy; assay type: ADME, organism-based; conditions: time 10-480 min
# HT-22 [19] = test: Cytotoxicity against mouse HT-22 cells assessed as survival rate at 100 uM incubated for 24 hrs by MTT assay relative to control; assay type: functional; conditions: read-out: Survival
# [20] = Half life in Sprague-Dawley rat at 10 mg/kg, po measured for 1 to 1440 mins by LC-MS/MS analysis; assay type: ADME, organism-based; conditions: in vivo, time 1-1440 min
# hERG (KCNH2) = hERG (KCNH2) (Homo sapiens, UniProt Q12809); test: Inhibition of hERG at 10 uM by manual patch clamp assay relative to control; assay type: toxicity
# Chain of hERG (KCNH2) (Q12809 whole entry): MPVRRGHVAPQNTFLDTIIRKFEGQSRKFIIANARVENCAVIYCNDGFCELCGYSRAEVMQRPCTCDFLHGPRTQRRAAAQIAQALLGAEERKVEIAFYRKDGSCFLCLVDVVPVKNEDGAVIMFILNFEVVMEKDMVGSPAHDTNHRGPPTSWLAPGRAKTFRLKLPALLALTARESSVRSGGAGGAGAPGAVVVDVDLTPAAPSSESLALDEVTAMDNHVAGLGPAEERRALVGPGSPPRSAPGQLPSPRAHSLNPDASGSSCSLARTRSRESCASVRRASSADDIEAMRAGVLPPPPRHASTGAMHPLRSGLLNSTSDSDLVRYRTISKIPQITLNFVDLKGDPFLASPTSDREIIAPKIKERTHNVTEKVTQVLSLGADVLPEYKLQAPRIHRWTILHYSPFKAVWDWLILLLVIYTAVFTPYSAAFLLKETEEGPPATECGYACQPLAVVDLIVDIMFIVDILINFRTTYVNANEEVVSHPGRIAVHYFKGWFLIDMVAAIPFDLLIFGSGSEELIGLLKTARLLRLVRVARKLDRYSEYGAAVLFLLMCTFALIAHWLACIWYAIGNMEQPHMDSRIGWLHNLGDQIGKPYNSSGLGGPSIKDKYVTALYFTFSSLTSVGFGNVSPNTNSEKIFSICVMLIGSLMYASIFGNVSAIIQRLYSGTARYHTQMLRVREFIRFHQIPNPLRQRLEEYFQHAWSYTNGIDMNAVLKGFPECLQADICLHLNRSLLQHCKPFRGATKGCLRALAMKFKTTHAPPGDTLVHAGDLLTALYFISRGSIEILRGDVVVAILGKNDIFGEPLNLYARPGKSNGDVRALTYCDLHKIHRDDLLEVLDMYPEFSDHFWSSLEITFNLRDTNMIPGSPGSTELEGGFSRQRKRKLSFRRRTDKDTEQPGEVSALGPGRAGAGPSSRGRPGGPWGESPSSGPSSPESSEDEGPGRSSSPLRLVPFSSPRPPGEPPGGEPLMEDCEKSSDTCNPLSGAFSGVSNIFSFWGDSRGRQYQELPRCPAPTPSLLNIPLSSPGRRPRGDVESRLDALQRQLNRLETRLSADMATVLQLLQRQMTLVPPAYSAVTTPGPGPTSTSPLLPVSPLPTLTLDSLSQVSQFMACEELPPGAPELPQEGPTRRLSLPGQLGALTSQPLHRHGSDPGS
# SH-SY5Y [21] = test: Cytotoxicity against human SH-SY5Y cells assessed as survival rate incubated for 24 hrs by MTT assay; assay type: functional, cell-based
# [22] = Tmax in Sprague-Dawley rat at 10 mg/kg, po measured for 1 to 1440 mins by LC-MS/MS analysis; assay type: ADME, organism-based; conditions: in vivo, time 1-1440 min
# [23] = Ratio of AUC (0 to t) in brain to plasma in ICR mouse at 10 mg/kg, po measured for 10 to 480 mins by spectroscopy; assay type: ADME, organism-based; conditions: time 10-480 min
# [24] = Cmax in brain of ICR mouse at 10 mg/kg, po measured for 10 to 480 mins by spectroscopy; assay type: ADME, organism-based; conditions: time 10-480 min
# [25] = Oral bioavailability in Sprague-Dawley rat at 10 mg/kg measured for 1 to 1440 mins by LC-MS/MS analysis; assay type: ADME, organism-based; conditions: in vivo, time 1-1440 min
# [26] = AUC (0 to infinity) in Sprague-Dawley rat at 10 mg/kg, po measured for 1 to 1440 mins by LC-MS/MS analysis; assay type: ADME, organism-based; conditions: in vivo, time 1-1440 min
smiles,measurement,setting,value
Nc1nonc1-c1nc2ccccc2n1CC(=O)Nc1ccc(CCN2CCOCC2)cc1,solubility at 24 h,[1],3.28 mM
same,Activity,Mus musculus [2],Active
same,inhibition (INH),Cytochrome P450 1A2,Not Active
same,AUC(0-t),[3],268 ng·h/mL
same,viability at 100 µM,BV-2,66.5%
same,Activity,HT-22 [4],Active
same,"metabolised at 1 h, 2 µM",[5],< 15%
same,inhibition at 10 µM,CYP2C9,10.9%
same,Activity,[6],Non-Toxic
same,AUC(0-t),[7],1440 ng·h/mL
same,AUC(0-inf),[8],3590 ng·h/mL
same,half-life,[9],3.29 h
same,Activity,SH-SY5Y [10],Dose-Dependent Effect
same,Cmax,[11],1060 ng/mL
same,IC50,Cholinesterase,0.0481 µM
same,Activity,[12],Non-Toxic
same,Kp,[13],0.15
same,Activity,Mus musculus [14],Active
same,Activity,[15],Non-Toxic
same,Cmax,[16],1390 ng/mL
same,Activity,Mus musculus [17],Active
same,inhibition at 10 µM,CYP2C19,9.19%
same,AUC(0-t),[18],826 ng·h/mL
same,viability at 100 µM,HT-22 [19],80.7%
same,half-life,[20],6.77 h
same,inhibition at 10 µM,hERG (KCNH2),25.5%
same,IC50,SH-SY5Y [21],89.8 µM
same,Tmax,[22],0.389 h
same,Kp,[23],0.32
same,Cmax,[24],209 ng/mL
same,bioavailability,[25],48.2%
same,AUC(0-inf),[26],1730 ng·h/mL
